Consider 23 compounds from ChEMBL document CHEMBL1136031, “8-Aryl xanthines potent inhibitors of phosphodiesterase 5” (Bioorg Med Chem Lett, 2002).

≈ marks a conversion by molar mass, not a printed value.

Data set [1] can be described thus: In vitro microsome metabolism clearance in rat was determined. The class given is ADME. The conditions noted are these: microsomes.
Data set [2] is described as follows: Volume in steady state distribution value was determined. It is filed as ADME, organism-based. The conditions noted are these: rat, in vivo; read-out: Vss.
Data set [3] can be described thus: Bioavailability. It is filed as ADME, organism-based. The conditions noted are these: rat, in vivo; read-out: BAV.
A short description of data set [4]: The pharmacokinetic property, Half-life was determined. It is filed as ADME, organism-based. The following applies: rat, in vivo.
The nature of data set [5]: Partition coefficient (logP). The class given is physicochemical. The conditions noted are these: octanol/water.
Data set [6] can be described thus: Kinetic solubility at pH 5, ca. It is filed as physicochemical. The conditions noted are these: buffer.
Data set [7] can be described thus: Kinetic solubility at pH 7.4, ca. It is filed as physicochemical. The conditions noted are these: buffer.
The subject of data set [8] is Caco-2. Description: Caco-2 permeability as biopharmaceutical property. It is filed as functional, cell-based. The following applies: Homo sapiens.
A further data set addresses Phosphodiesterase 6. Put plainly: Inhibitory concentration against bovine retina phosphodiesterase 6 activity. It is filed as tissue-based.
The target of data set [9] is cGMP-specific 3',5'-cyclic phosphodiesterase (Homo sapiens, UniProt O76074). Description: Inhibitory activity against human platelet Phosphodiesterase 5 (PDE5).
Data set [10] in a line: Ratio of IC50 against human platelet PDE5 to that against bovine retina PDE6.
Data set [11] in a line: In vitro microsome metabolism clearance in human was determined. It is filed as ADME. The following applies: microsomes.
Data set [12] is described as follows: In vitro microsome metabolism clearance in human was determined; High. It is filed as ADME. The conditions noted are these: microsomes.
Data set [13] in a line: Kinetic solubility at pH 5; ca. It is filed as physicochemical. The conditions noted are these: buffer.
The target in the next data set is Phosphodiesterase 3 (Homo sapiens, UniProt Q14432+Q13370). Description: Inhibition of human platelet Phosphodiesterase 3.
For another data set, the target named is Phosphodiesterase 1 (Bos taurus, UniProt Q01061+P14100). Description: Inhibition of bovine heart Phosphodiesterase 1 (PDE1). The class given is protein assay.
Data set [14] is described as follows: Log D value at pH 7.4. It is filed as physicochemical. The conditions noted are these: buffer.
The nature of data set [15]: The pharmacokinetic property, Half-life in rat in vivo. The class given is ADME, organism-based.
A short description of data set [16]: Kinetic solubility at pH 5.9. It is filed as physicochemical. The conditions noted are these: buffer.
The nature of data set [17]: Kinetic solubility at pH 6.9, ca. It is filed as physicochemical. The following applies: buffer.
Data set [18] has as its system Caco-2. Put plainly: Caco 2 permeability is determined. The class given is functional, cell-based. The following applies: Homo sapiens. A general note: Caco-2 monolayers are a common model of the intestinal barrier.
The species entered for another data set is Homo sapiens. Put plainly: Caco-2 permeability was determined. The class given is ADME.
The nature of data set [19]: Kinetic solubility at pH 7.4. It is filed as physicochemical. The following applies: buffer.
A short description of data set [20]: Kinetic solubility at pH 5. It is filed as physicochemical. The following applies: caco-2, pH 5.

As to `CCCOc1ccc(S(=O)(=O)N2CCN(C(=O)N(C)C)CC2)cc1-c1nc2c(=O)n(C)c(=O)n(CC(C)C)c2[nH]1`, the results for the microsomal CLint in data set [1] and in [11] were 185 µL/min/mg and 71 µL/min/mg, respectively. In data set [2], the Vd amounted to 3.4 L/kg. Further, the bioavailability in data set [3] amounted to 0%. This compound also yielded a half-life in data set [4] of 22 min. For the same compound, the logP in [5] is 4.04. Also, the kinetic solubility in [6] and in data set [7] was 25 µg/mL (≈ 43.4 µM) throughout. Further, the Papp in the data set on Caco-2 [8] worked out at 2.29e-05 cm/s. The values for the IC50 (against Phosphodiesterase 6; in data set [9]) were 0.014 µM and 3.5 nM, respectively. In [10], the Ratio came out at 4.

As to `CCCOc1ccccc1-c1nc2c(=O)n(C)c(=O)n(CC(C)C)c2[nH]1`, the IC50 amounted to 0.087 µM on Phosphodiesterase 6 and 60 nM in [9]. The Ratio in [10] was 1.4.

Take `CC(C)Cn1c(=O)n(C)c(=O)c2[nH]c(-c3ccccc3OC(C)C)nc21`: the concentration for half-maximal inhibition (IC50) at Phosphodiesterase 6 is 0.214 µM; in data set [9], 77 nM. In addition, the Ratio in [10] was found to be 2.8.

For `CCCOc1ccc(S(=O)(=O)N2CCC(CCO)CC2)cc1-c1nc2c([nH]1)c(=O)n(C)c(=O)n2CC(C)C`, the Cl entry in [12] is “High”. Further, the intrinsic metabolic clearance (microsomal CLint) in data set [1] is 226 µL/min/mg. Further, the bioavailability in data set [3] came out at 0%. In data set [5], this compound gave a logP of 3.67. Besides, the solubility (kinetic) in [13] and in [7] was 5 µg/mL (≈ 9.13 µM) each time. This compound returned a half-maximal inhibitory concentration (IC50) in data set [9] of 3 nM.

For `CCCOc1ccc(S(=O)(=O)N2CCC(CCO)CC2)cc1-c1nc2c(=O)n(C)c(=O)n(CC(C)C)c2[nH]1`, in the data set on Caco-2 [8], the Papp is 1.32e-05 cm/s. Also, the half-inhibitory concentration (IC50) against Phosphodiesterase 6 turned out to be 0.017 µM. The Ratio in data set [10] was determined as 5.5.

Consider `CCOc1ccc(S(=O)(=O)N2CCN(C)CC2)cc1-c1nc2c(=O)n(C)c(=O)n(CC3CC3)c2[nH]1`, for which the IC50 is more than 10 µM on Phosphodiesterase 3, 0.217 µM at Phosphodiesterase 6, 28 nM in data set [9] and more than 10 µM against Phosphodiesterase 1.

For `CCCOc1ccc(S(=O)(=O)N(CC)CCN(C)C)cc1-c1nc2c(=O)n(C)c(=O)n(CC(C)C)c2[nH]1`, the 50% inhibitory concentration (IC50) is 0.242 µM at Phosphodiesterase 6 and 11 nM in data set [9]. Besides, the Ratio in [10] is 22.

On Phosphodiesterase 6, `CCCOc1ccc(S(=O)(=O)N2CCN(CC)CC2)cc1-c1nc2c(=O)n(C)c(=O)n(CC(C)C)c2[nH]1` showed a half-maximal inhibitory concentration (IC50) of 0.003 µM. In addition, the Ratio in data set [10] amounted to 0.5.

In the case of `CC(C)COc1ccccc1-c1nc2c(=O)n(C)c(=O)n(CC(C)C)c2[nH]1`, the half-maximal inhibitory concentration (IC50) on Phosphodiesterase 6 was found to be 0.073 µM. In addition, in data set [10], the Ratio came to 0.7.

In the case of `CCCOc1ccc(S(=O)(=O)N2CCN(CCO)CC2)cc1-c1nc2c(=O)n(C)c(=O)n(CC(C)C)c2[nH]1`, the IC50 is 0.015 µM at Phosphodiesterase 6 and 3.5 nM in data set [9]. The Ratio in data set [10] is 4.

`C=CCCn1c(=O)n(C)c(=O)c2nc(-c3cc(S(=O)(=O)N4CCN(C)CC4)ccc3OCC)[nH]c21`: the IC50 is more than 10 µM on Phosphodiesterase 3, 5.6 µM against Phosphodiesterase 6, 100 nM in [9] and more than 10 µM against Phosphodiesterase 1.

For `CCOc1ccc(S(=O)(=O)N2CCN(C)CC2)cc1-c1nc2c(=O)n(C)c(=O)n(CC(C)(C)C)c2[nH]1`, the IC50 at Phosphodiesterase 3 stood at 5.57 µM; against Phosphodiesterase 6, 2.38 µM; in [9] it was 91 nM.

Consider `CCCOc1ccc(S(=O)(=O)N2CCN(CCOC)CC2)cc1-c1nc2c(=O)n(C)c(=O)n(CC(C)C)c2[nH]1`, for which, at Phosphodiesterase 6, the IC50 is 0.091 µM. The Ratio in data set [10] is 7.5.

Turning to `CC(C)Cn1c(=O)n(C)c(=O)c2[nH]c(-c3cc(S(=O)(=O)N4CCN(C)CC4)ccc3OC(C)C)nc21`, the IC50 at Phosphodiesterase 6 is 0.077 µM; in data set [9], 16 nM. In data set [10], the Ratio turned out to be 5.

In the case of `CCCOc1ccc(S(=O)(=O)N2CCN(C)CC2)cc1-c1nc2c(=O)n(C)c(=O)n(CC(C)C)c2[nH]1`, the half-inhibitory concentration (IC50) at Phosphodiesterase 6 is 0.006 µM; in data set [9], 10 nM. Also, in [10], the Ratio came out at 0.6.

For the compound `CCOc1ccc(S(=O)(=O)N2CCN(C)CC2)cc1-c1nc2c([nH]1)c(=O)n(C)c(=O)n2CC(C)C`, the Vd in [2] came out at 9.7 L/kg. The bioavailability in data set [3] was determined as 11%. For the same compound, the pH-dependent lipophilicity (logD) in [14] was 3.15. This compound showed a half-life in data set [15] of 92 min. The compound also displayed a lipophilicity (logP) in data set [5] of 3.26. Moreover, the figures for the kinetic solubility in [16] and in [17] were more than 160 µg/mL and 30 µg/mL (≈ 59.5 µM), respectively.

Regarding `CCOc1ccc(S(=O)(=O)N2CCN(C)CC2)cc1-c1nc2c(=O)[nH]c(=O)n(CC(C)C)c2[nH]1`, the half-inhibitory concentration (IC50) against Phosphodiesterase 3 is more than 10 µM; in data set [9], 315 nM; against Phosphodiesterase 1, more than 10 µM.

The compound `CCCOc1ccc(S(=O)(=O)N(C)CCN(C)C)cc1-c1nc2c(=O)n(C)c(=O)n(CC(C)C)c2[nH]1` came in with a logP in data set [5] of 4.9. In addition, the Papp in the data set with Caco-2 [8] turned out to be 3e-07 cm/s. In addition, the IC50 at Phosphodiesterase 6 was found to be 1.15 µM; in data set [9], 16 nM. Further, in data set [10], the Ratio came to 72.

For the compound `CCOc1ccc(S(=O)(=O)N2CCN(C)CC2)cc1-c1nc2c(=O)n(C)c(=O)n(Cc3ccc(OC)cc3)c2[nH]1`, the IC50 was more than 10 µM at Phosphodiesterase 3, 1.21 µM on Phosphodiesterase 6, 59 nM in data set [9] and 4.52 µM against Phosphodiesterase 1.

With `CCOc1ccc(S(=O)(=O)N2CCN(C)CC2)cc1-c1nc2c(=O)n(C)c(=O)n(CC(C)C)c2[nH]1`, the apparent permeability (Papp) with Caco-2 [18] is 2.5e-05 cm/s. In addition, the figures for the 50% inhibitory concentration (IC50) against Phosphodiesterase 3, against Phosphodiesterase 6 and against Phosphodiesterase 1 were more than 10 µM, 0.1 µM and 3.38 µM, respectively. Further, the Ratio in data set [10] came to 4.9.

As to `CCCOc1ccc(S(=O)(=O)N2CCN(CCN(C)C)CC2)cc1-c1nc2c(=O)n(C)c(=O)n(CC(C)C)c2[nH]1`, on Phosphodiesterase 6, the concentration for half-maximal inhibition (IC50) worked out at 0.037 µM. Moreover, in [10], the Ratio is 1.5.

Consider `CCOc1ccccc1-c1nc2c(=O)n(C)c(=O)n(CC(C)C)c2[nH]1`, for which the IC50 against Phosphodiesterase 6 is 0.227 µM; in data set [9], 73 nM. Further, in data set [10], the Ratio was 3.1.

Take `CCOc1ccc(S(=O)(=O)N2CCN(C)CC2)cc1-c1nc2c(=O)n(C)c(=O)n(CC(C)CC)c2[nH]1` (centres undefined): the microsomal CLint in data set [1] is 178 µL/min/mg; in data set [11] it was 114 µL/min/mg. The Vd in data set [2] was 9.7 L/kg. Besides, the bioavailability in data set [3] turned out to be 11%. The half-life in data set [4] was determined as 92 min. Besides, the log partition coefficient (logP) in [5] was determined as 3.81. The apparent permeability (Papp) in the data set filed under Homo sapiens turned out to be 0.0000345 cm/s. For the same compound, the kinetic solubility in data set [19] was 100 µg/mL (≈ 193 µM); in data set [20], more than 200 µg/mL. Moreover, the IC50 at Phosphodiesterase 3 was 6.03 µM; on Phosphodiesterase 6, 0.083 µM; in [9], 9 nM; at Phosphodiesterase 1 it was more than 10 µM.

The microsomal CLint is a measure of how fast metabolising enzymes remove a compound, apart from limits set by blood flow. A lower microsomal CLint goes with slow turnover. The half-life is how long it takes for the measured level to halve. What is called logP is a log measure of how a compound divides between an organic and an aqueous phase. Read a low logP as lower lipophilicity. Broadly, the kinetic solubility is the concentration staying in solution when a stock, usually in DMSO, is diluted into the medium. As a reminder, the Papp is the rate of passage across a membrane or cell layer, normalised by area and donor concentration. A lower Papp goes with slow passage. The term IC50 denotes the concentration needed to halve the response being measured. A higher IC50 goes with weaker potency in that assay. A word on the logD: it is lipophilicity at a set pH, counting ionised and neutral species.
